# According to patent US20230094545A1, “S1P RECEPTOR MODULATORS” (AKAAL PHARMA PTY LTD, priority 2020, published 2023):
# What was measured:
# [1] = tested on: formalin induced nociception; experiment: Formalin induced nociception (pain); assay type: in vivo, Sprague Dawley rats
# Method: Forty male Sprague Dawley rats were assigned to different treatment and control groups containing 8 animals/group. The groups were treated with different doses of a compound of Formula I and received either 0.03, 0.3 and 3.0 mg/kg dose, administered orally 30 min before formalin injection. Tramadol hydrochloride (30 mg/kg) was administered orally 30 min before formalin injection as a positive control. Deionized water was used as a negative control (Vehicle) and administered orally 30 min before formalin injection. Individual rats were then gently restrained and formalin (5% in v/v in saline, 50 μl, s.c.) was injected into the plantar surface of the left hind paw using a 27G needle. Post-formalin nociceptive behaviour, paw flinching was recorded for 60 min, in bins of 5 min. The intra plantar injection of formalin (50 μl, 5% v/v) induced marked flinching of the ipsilateral rat paw with typical biphasic response in the vehicle/distilled water treated animals. […] Inhibition of nociceptive behaviour at 0.3 mg/kg (33%, p<0.05) and 3.0 mg/kg (45%, p<0.01) were statistically significant compared to vehicle control.
# [2] = Solubility in water / precipitation in buffer; assay type: physicochemical; details: listed as compound of formula I
# Method: To solubilize the free base in water the novel technology AvignaSOL (N,N-Dimethyl hexanamide; patent number: U.S. Pat. No. 9,186,338B2) and its higher derivatives such as octinamide, decamide which improve the absorption of various poorly soluble drugs was used. AvignaSOL as 1-70% ww % assisted the solubilization of free base as 1 gm/20 mL of water. The solubility of free base in water assisted its direct use in various formulation such as creams, gels, solutions which together with the permeation enhancing effect will be harnessed to improve skin penetration and/or bioavailability and in altering the pharmacokinetics and pharmacodynamics profile of free base.
# The AvignaSOL having a log P of ˜1.6 hinder the release by increasing the hydrophobicity of the delivery system. […] The combination of compound of formula I with other ingredients including sustained release enhancer with or without AvignaSOL were prepared as novel formulation techniques to improve and/or alter the pharmacokinetics and pharmacodynamics profile of compound of Formula I.
# [3] = Single oral dose in healthy human subjects: systemic exposure, heart rate, lymphopenia; assay type: in vivo; details: humans; for bradycardia: 0.5 mg to 12 mg single oral dose, 72 hours monitoring
# Method: The observance of bradycardia with S1P1 selective agonists has been reported to be species specific.
# Human subjects were treated in cohorts of different dose levels (each cohort=8 human subjects) with a compound of formula (I)@0.5 mg, 2 mg, 6 mg and 12 mg single oral dose.
# [4] = Systemic exposure in human subjects after topical application; details: in vivo
# Source text: The medicaments according to the present disclosure may contain from about 0.05% to about 10% by weight, or from about 0.5% to about 10% by weight, preferably from about 1.0 to about 4.5% by weight or preferably from about 1.5 to about 4.5% by weight, of the S1P receptor modulator. […] The dose of the S1P receptor modulator used in the treatment of the aforementioned disorders will vary in the usual way with the seriousness of the disorders, the weight of the sufferer, and other similar factors. In preferred embodiments, the medicament is applied to 100 cm^2 of body surface area per 1 g of medicament, up to 1000 cm^2 of body surface area per 1 g of medicament. The medicament can be applied such that the standard daily therapeutic dosage of active compound is ≤3 g. The topical dose level and strength of dose formulation with the compound of formula (I) may be extended to higher levels without risk of bradycardia and lymphopenia. For example, dose levels of medicaments according to the methods of the present disclosure may include up to: • 1. 10 g daily dose of up to 30% ww strength formulation with 1 g up to 300 cm^2 surface area • 2. 10 g daily dose of up to 30% ww strength formulation with 1 g up to 1000 cm2 surface area • 3. 100 g daily dose of up to 3% ww strength formulation with 1 g up to 300 cm^2 surface area • 4. 100 g daily dose of up to 3% ww strength formulation with 1 g up to 1000 cm2 surface area • 5. 300 g daily dose of up to 1% ww strength formulation with 1 g up to 300 cm^2 surface area. • 6. 300 g daily dose of up to 1% ww strength formulation with 1 g up to 1000 cm^2 surface area
# The body surface area of an adult is around 16,000 cm^2 to 18,000 cm^2 and the skin surface area varies from 10,000 cm^2 to 20,000 cm^2 (https://hypertextbook.com/facts/2001/IgorFridman.shtml, and references cited within). Human subjects received a topical application of 1 g of 3% by weight formulation per 150 cm^2 of body surface area (over the skin) twice daily for 21 days. The resulting systemic exposure was approximately 2.2 ng/ml.
# [5] = tested on: dinitrofluorobenzene (DNFB)-induced delayed-type hypersensitivity; experiment: DNFB-induced delayed-type hypersensitivity (DTH); assay type: in vivo; details: 3 mg/kg twice daily
# Method: The efficacy of compound of formula (I) was determined in an animal model of dinitrofluorobenzene (DNFB)-induced delayed-type hypersensitivity (DTH), an inflammatory model. The animals (n=9) were treated with the vehicle or a compound of formula (I), receiving a twice daily dose of 3 mg/kg. The efficacy end points were measured as Ear thickness before challenge and 24 h after challenge. Ear weight was measured 24 h after challenge. At sacrifice, right ear samples were collected and used for tissue MPO activity.
# [6] = tested on: experimental autoimmune encephalomyelitis (EAE); experiment: EAE model, RT-PCR for IL-31, IL1β and IFNγ in spleen; assay type: in vivo; details: 3 mg/kg from 11th day, Day 27
# Method: The efficacy of the compound of formula (I) was assessed in an animal model of experimental autoimmune encephalomyelitis (EAE), which is a widely-accepted model of demyelinating diseases such as MS. The cDNA was prepared from spleen obtained from Vehicle treated (Control), EAE induced (no treatment) and EAE induced (a compound of formula (I) treated) animals (n=5 each group) at the recovery (Day 27 from 1st day of MBP immunization). The treatment with a compound of Formula I (3 mg/kg) was initiated on the 11th day from MBP immunization. cDNA was synthesized using Bio-Rad cDNA synthesis kit. RT-PCR was performed for IL-31, IL1β and IFNγ. Primers were obtained from Qiagen and the samples were analysed on Bio-Rad CFX96Real-Time System. […] Statistical Significance of the data is represented by p value. *denotes p≤0.05, **denotes p≤0.01.
compound,measurement,setting,value
CCCOc1ccc(-c2nc(-c3ccc4oc(C(N)(CO)CO)cc4c3)no2)cc1Cl [compound of formula (I)],inhibition of nociceptive behaviour,"[1]; 0.3 mg/kg oral 30 min before formalin, p<0.05",33%
same,inhibition of nociceptive behaviour,"[1]; 3.0 mg/kg oral 30 min before formalin, p<0.01",45%
same,nociceptive behaviour,"[1]; 0.03, 0.3 and 3 mg/kg oral 30 min before formalin",inhibited nociceptive behaviour
same,solubility in water,[2],soluble in water
same,systemic exposure,[3]; 0.5 mg single oral dose,0.6 ng/mL
same,bradycardia,[3],no bradycardia events
same,bradycardia,[3]; listed as S1P1 receptor modulator of formula (I),did not induce bradycardia
same,bradycardia,[3]; listed as compound of Formula I,no dose proportional or dose relevant bradycardia event
same,systemic exposure,[3]; 2 mg single oral dose,2.4 ng/mL
same,systemic exposure,[3]; 6 mg single oral dose,7.1 ng/mL
same,systemic exposure,[3]; 12 mg single oral dose,18.8 ng/mL
same,lymphopenia,[3]; dose of ~0.17 mg/kg,no induction of significant lymphopenia
same,systemic exposure,[3]; dose of ~0.17 mg/kg,18.8 ng/mL
same,concentration at 3 weeks,"[4]; 2 g daily of 3% ww formulation, 2 g daily topical 3% ww formulation for 3 weeks",~2.5 ng/mL
same,concentration at 21 days,"[4]; topical, 1 g of 3% by weight formulation per 150 cm^2, 1 g of 3% by weight formulation per 150 cm2 twice daily for 21 days",~2.2 ng/mL
same,concentration at 1 week,"[4]; topical, 2 g of 3% or 6% by weight formulation (60 mg or 120 mg) over the joint area for one week",≤ 2.5 ng/mL
same,MPO activity (ear tissue),[5],significantly reduced
same,reduction of ear thickness,"[5]; 24 h after challenge, p<0.0001",~70%
same,reduction of ear weight,"[5]; 24 h after challenge, p<0.01",~50%
same,"markers of inflammation (IL-31, IL1β, IFNγ, RT-PCR, spleen)",[6],significantly reduced markers of inflammation
